Measurements from PubChem BioAssay (NCI).
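Test compounds were applied to cells in 96-well plates for 48 hours at 5 doses. At the GI50, growth is halved. TGI is the concentration that stops growth completely.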

Columns and labels:
Experiment in all cases: NCI-60 cell line screen, 48 h
NCI-H522 lung = system: NCI-H522 lung
DU-145 prostate = system: DU-145 prostate
UACC-257 melanoma = system: UACC-257 melanoma
LOX IMVI melanoma = system: LOX IMVI melanoma
OVCAR-4 ovarian = system: OVCAR-4 ovarian
T-47D breast = system: T-47D breast
NCI-H226 lung = system: NCI-H226 lung
CAKI-1 renal = system: CAKI-1 renal
MCF7 breast = system: MCF7 breast
A498 renal = system: A498 renal
SNB-75 CNS = system: SNB-75 CNS
U251 CNS = system: U251 CNS
HOP-92 NSCLC = system: HOP-92 NSCLC
EKVX NSCLC = system: EKVX NSCLC
OVCAR-5 ovarian = system: OVCAR-5 ovarian
SN12C renal = system: SN12C renal
HT29 colon = system: HT29 colon
SK-MEL-5 melanoma = system: SK-MEL-5 melanoma
IGROV1 ovarian = system: IGROV1 ovarian
SK-MEL-28 melanoma = system: SK-MEL-28 melanoma
NCI/ADR-RES ovarian = system: NCI/ADR-RES ovarian
SF-268 CNS = system: SF-268 CNS
CCRF-CEM leukemia = system: CCRF-CEM leukemia
UO-31 renal = system: UO-31 renal
SF-295 CNS = system: SF-295 CNS
UACC-62 melanoma = system: UACC-62 melanoma
RPMI-8226 leukemia = system: RPMI-8226 leukemia
OVCAR-3 ovarian = system: OVCAR-3 ovarian
HCT-15 colon = system: HCT-15 colon
SF-539 CNS = system: SF-539 CNS
COLO 205 colon = system: COLO 205 colon
KM12 colon = system: KM12 colon
NCI-H460 lung = system: NCI-H460 lung
MOLT-4 leukemia = system: MOLT-4 leukemia
MDA-MB-435 = system: MDA-MB-435
NCI-H23 lung = system: NCI-H23 lung
RXF 393 renal = system: RXF 393 renal
786-0 renal = system: 786-0 renal
SK-MEL-2 melanoma = system: SK-MEL-2 melanoma
MDA-MB-231 breast = system: MDA-MB-231 breast
OVCAR-8 ovarian = system: OVCAR-8 ovarian
SW-620 colon = system: SW-620 colon
TK-10 renal = system: TK-10 renal
A549 NSCLC = system: A549 NSCLC
HCT-116 colon = system: HCT-116 colon
ACHN renal = system: ACHN renal
SNB-19 CNS = system: SNB-19 CNS
MALME-3M melanoma = system: MALME-3M melanoma
SK-OV-3 ovarian = system: SK-OV-3 ovarian
K-562 leukemia = system: K-562 leukemia
M14 melanoma = system: M14 melanoma
BT-549 breast = system: BT-549 breast
PC-3 prostate = system: PC-3 prostate
SR leukemia = system: SR leukemia
HCC-2998 colon = system: HCC-2998 colon
HL-60(TB) leukemia = system: HL-60(TB) leukemia
HOP-62 NSCLC = system: HOP-62 NSCLC

SMILES: CCCSc1cc(Cl)nc(N)n1
- GI50 (NCI-H522 lung): > 100 µM
- TGI (NCI-H522 lung): > 100 µM
- GI50 (DU-145 prostate): > 100 µM
- TGI (DU-145 prostate): > 100 µM
- GI50 (UACC-257 melanoma): > 100 µM
- TGI (UACC-257 melanoma): > 100 µM
- GI50 (LOX IMVI melanoma): > 100 µM
- TGI (LOX IMVI melanoma): > 100 µM
- GI50 (OVCAR-4 ovarian): > 100 µM
- TGI (OVCAR-4 ovarian): > 100 µM
- GI50 (T-47D breast): > 100 µM
- TGI (T-47D breast): > 100 µM
- GI50 (NCI-H226 lung): > 100 µM
- TGI (NCI-H226 lung): > 100 µM
- GI50 (CAKI-1 renal): 90.7 µM
- TGI (CAKI-1 renal): > 100 µM
- GI50 (MCF7 breast): > 100 µM
- TGI (MCF7 breast): > 100 µM
- GI50 (A498 renal): > 100 µM
- TGI (A498 renal): > 100 µM
- GI50 (SNB-75 CNS): 90.1 µM
- TGI (SNB-75 CNS): > 100 µM
- GI50 (U251 CNS): > 100 µM
- TGI (U251 CNS): > 100 µM
- GI50 (HOP-92 NSCLC): 14.8 µM
- TGI (HOP-92 NSCLC): > 100 µM
- GI50 (EKVX NSCLC): > 100 µM
- TGI (EKVX NSCLC): > 100 µM
- GI50 (OVCAR-5 ovarian): > 100 µM
- TGI (OVCAR-5 ovarian): > 100 µM
- GI50 (SN12C renal): > 100 µM
- TGI (SN12C renal): > 100 µM
- GI50 (HT29 colon): > 100 µM
- TGI (HT29 colon): > 100 µM
- GI50 (SK-MEL-5 melanoma): > 100 µM
- TGI (SK-MEL-5 melanoma): > 100 µM
- GI50 (IGROV1 ovarian): > 100 µM
- TGI (IGROV1 ovarian): > 100 µM
- GI50 (SK-MEL-28 melanoma): > 100 µM
- TGI (SK-MEL-28 melanoma): > 100 µM
- GI50 (NCI/ADR-RES ovarian): > 100 µM
- TGI (NCI/ADR-RES ovarian): > 100 µM
- GI50 (SF-268 CNS): > 100 µM
- TGI (SF-268 CNS): > 100 µM
- GI50 (CCRF-CEM leukemia): > 100 µM
- TGI (CCRF-CEM leukemia): > 100 µM
- GI50 (UO-31 renal): 71.5 µM
- TGI (UO-31 renal): > 100 µM
- GI50 (SF-295 CNS): > 100 µM
- TGI (SF-295 CNS): > 100 µM
- GI50 (UACC-62 melanoma): > 100 µM
- TGI (UACC-62 melanoma): > 100 µM
- GI50 (RPMI-8226 leukemia): > 100 µM
- TGI (RPMI-8226 leukemia): > 100 µM
- GI50 (OVCAR-3 ovarian): > 100 µM
- TGI (OVCAR-3 ovarian): > 100 µM
- GI50 (HCT-15 colon): > 100 µM
- TGI (HCT-15 colon): > 100 µM
- GI50 (SF-539 CNS): > 100 µM
- TGI (SF-539 CNS): > 100 µM
- GI50 (COLO 205 colon): > 100 µM
- TGI (COLO 205 colon): > 100 µM
- GI50 (KM12 colon): > 100 µM
- TGI (KM12 colon): > 100 µM
- GI50 (NCI-H460 lung): > 100 µM
- TGI (NCI-H460 lung): > 100 µM
- GI50 (MOLT-4 leukemia): 94.8 µM
- TGI (MOLT-4 leukemia): > 100 µM
- GI50 (MDA-MB-435): > 100 µM
- TGI (MDA-MB-435): > 100 µM
- GI50 (NCI-H23 lung): > 100 µM
- TGI (NCI-H23 lung): > 100 µM
- GI50 (RXF 393 renal): > 100 µM
- TGI (RXF 393 renal): > 100 µM
- GI50 (786-0 renal): > 100 µM
- TGI (786-0 renal): > 100 µM
- GI50 (SK-MEL-2 melanoma): > 100 µM
- TGI (SK-MEL-2 melanoma): > 100 µM
- GI50 (MDA-MB-231 breast): > 100 µM
- TGI (MDA-MB-231 breast): > 100 µM
- GI50 (OVCAR-8 ovarian): > 100 µM
- TGI (OVCAR-8 ovarian): > 100 µM
- GI50 (SW-620 colon): > 100 µM
- TGI (SW-620 colon): > 100 µM
- GI50 (TK-10 renal): > 100 µM
- TGI (TK-10 renal): > 100 µM
- GI50 (A549 NSCLC): > 100 µM
- TGI (A549 NSCLC): > 100 µM
- GI50 (HCT-116 colon): > 100 µM
- TGI (HCT-116 colon): > 100 µM
- GI50 (ACHN renal): > 100 µM
- TGI (ACHN renal): > 100 µM
- GI50 (SNB-19 CNS): > 100 µM
- TGI (SNB-19 CNS): > 100 µM
- GI50 (MALME-3M melanoma): > 100 µM
- TGI (MALME-3M melanoma): > 100 µM
- GI50 (SK-OV-3 ovarian): > 100 µM
- TGI (SK-OV-3 ovarian): > 100 µM
- GI50 (K-562 leukemia): > 100 µM
- TGI (K-562 leukemia): > 100 µM
- GI50 (M14 melanoma): > 100 µM
- TGI (M14 melanoma): > 100 µM
- GI50 (BT-549 breast): 65.1 µM
- TGI (BT-549 breast): > 100 µM
- GI50 (PC-3 prostate): > 100 µM
- TGI (PC-3 prostate): > 100 µM
- GI50 (SR leukemia): > 100 µM
- TGI (SR leukemia): > 100 µM
- GI50 (HCC-2998 colon): > 100 µM
- TGI (HCC-2998 colon): > 100 µM
- GI50 (HL-60(TB) leukemia): 6.48 µM
- TGI (HL-60(TB) leukemia): 50.5 µM
- GI50 (HOP-62 NSCLC): > 100 µM
- TGI (HOP-62 NSCLC): > 100 µM
